Data reported in patent publication US4435404A, “Carbostyril derivatives” (priority 1980, dated 1984).

How the values were obtained:
Acute Toxicity Test = settings: mouse, in vivo; male mice, oral administration
Experimental: The test compounds were administered orally to the mice and LD50 (mg/kg) of the compounds was determined.

[1] = tested on: Gold blatt type renoprival hypertension rats (RHR); assay: Hypotensive effect, Tail-cuff method, RHR; type: in vivo, rat; settings: 30 mg/kg oral, mean value ± standard deviation
Experimental: Hypotensive effect of the compounds were measured by determining the maximum blood pressure of the test animals according to a procedure of Tail-cuff method.
Test animals used were the following two types.
(1) Gold blatt type renoprival hypertension rats (RHR)
Wistar strain male rats having, 160-180 g of body weight, were anesthetized with ether and the left-side renal artery was pluged with a silver clip having 0.2 mm inside diameter, while the right-side renal artery was kept as it was without operation. Four (4) weeks after the operation, rats having the maximum blood pressure over 150 mmHg were selected and used as test animals which were abstained from food for overnight.
Each of compounds to be tested were administered orally and the blood pressure was measured before the administration and 1, 2, 4, 6 and 8 hours after the administration. The blood pressure was measured by using Recorder (Rectihoriz type 8S, San-ei Instrument) and Electrosthygmomanometer PE-300 (Macro Bio-systems, Houston, Tex.).

[2] = molecular target: T1, cyclic AMP phosphodiesterase (Oryctolagus cuniculus, UniProt G1ST54); assay: Obstructive action against cyclic AMP phosphodiesterase; type: biochemical; settings: rabbit platelet enzyme, 30° C., 20 minutes
T1 construct: the supernatant was collected to use it as a crude enzyme solution; from tissue; host or cells: rabbit platelets (from platelet-rich plasma)
T1 sequence (G1ST54 1-1128): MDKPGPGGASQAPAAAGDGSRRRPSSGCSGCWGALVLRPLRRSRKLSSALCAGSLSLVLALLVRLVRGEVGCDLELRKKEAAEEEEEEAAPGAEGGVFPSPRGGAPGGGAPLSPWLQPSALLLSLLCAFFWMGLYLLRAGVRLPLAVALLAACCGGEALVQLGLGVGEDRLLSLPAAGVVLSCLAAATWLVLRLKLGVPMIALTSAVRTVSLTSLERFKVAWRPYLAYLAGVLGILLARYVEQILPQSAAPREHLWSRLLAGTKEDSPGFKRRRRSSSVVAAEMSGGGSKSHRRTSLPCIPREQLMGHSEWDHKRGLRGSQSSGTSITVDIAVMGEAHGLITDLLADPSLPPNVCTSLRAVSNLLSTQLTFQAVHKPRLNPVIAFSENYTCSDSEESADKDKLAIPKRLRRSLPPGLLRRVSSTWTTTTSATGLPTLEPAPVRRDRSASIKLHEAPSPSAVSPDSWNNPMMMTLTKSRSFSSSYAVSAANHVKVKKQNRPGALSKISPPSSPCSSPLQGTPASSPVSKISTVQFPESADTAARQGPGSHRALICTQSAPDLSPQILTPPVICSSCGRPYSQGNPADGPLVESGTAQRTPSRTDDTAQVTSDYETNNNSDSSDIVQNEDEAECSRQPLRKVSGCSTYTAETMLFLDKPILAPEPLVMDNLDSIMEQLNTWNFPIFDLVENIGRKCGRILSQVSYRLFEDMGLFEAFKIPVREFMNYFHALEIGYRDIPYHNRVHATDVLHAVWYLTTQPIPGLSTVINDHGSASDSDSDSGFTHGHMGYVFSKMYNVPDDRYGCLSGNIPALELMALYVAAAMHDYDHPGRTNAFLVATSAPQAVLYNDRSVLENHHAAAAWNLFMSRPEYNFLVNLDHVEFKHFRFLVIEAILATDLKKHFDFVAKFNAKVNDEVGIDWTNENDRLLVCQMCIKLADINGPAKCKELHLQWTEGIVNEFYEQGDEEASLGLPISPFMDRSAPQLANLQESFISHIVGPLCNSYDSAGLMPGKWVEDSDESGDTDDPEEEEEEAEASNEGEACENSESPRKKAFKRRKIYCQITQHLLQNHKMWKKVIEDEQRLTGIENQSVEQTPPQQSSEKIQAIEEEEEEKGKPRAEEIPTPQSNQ
Experimental: That is, for determining the obstructive activity against cyclic AMP phosphodiesterase, 10 ml of a solution obtained by adding 1 mmol of MgCl2 into 50 mmol of tris-hydrochloric acid buffer with pH 7.4 was added to the platelets obtained by further centrifuging the above-said rabbit PRP at 3,000 r.p.m. for 10 minutes, and the suspended platelets were ground by a Teflon potter type homogenizer. This was followed by two times of freezing and thawing treatment and 300-second fracturing with 200 watt supersonic waves. After additional 60-minute centrifugation with 100,000 G, the supernatant was collected to use it as a crude enzyme solution.
10 Milliliters of this crude buffer solution was added to a 1.5×20 cm DEAE-cellulose column which has previously been buffered with 50 mM of tris-acetate buffer (pH 6.0), followed by washing and elution with 30 ml of 50 mM tris-acetate buffer, and this buffer solution was subjected to linear gradient elution with 0 to 0.5 moles of sodium acetate-tris-acetatebuffer (total amount of elute was 300 ml.). The flow rate was 0.5 ml/min, and 5 ml of each fraction was batched out. […] This fraction was used as cyclic AMP phosphodiesterase.
0.1 Milliliter of an aqueous solution of each test compound of a specified concentration was mixed with 40 mmol of tris-hydrochloric acid buffer (pH 8.0, containing 50 μg of cow serum albumin and 4 mmol of MgCl2) containing predetermined 1.0 μmol of cyclic AMP (tritium cyclic AMP), and 0.2 ml of this mixed solution was used as substrate solution.
0.2 Milliliter of the above-prepared cyclic AMP phosphodiesterase of a predetermined concentration was added to said substrate solution and the mixture was reacted at 30° C. for 20 minutes, producing tritium 5'-AMP from the tritium cyclic AMP.
The reaction system was then immersed in boiling water for 2 minutes to stop the reaction, and then this reaction solution was cooled in ice water and, for converting the produced tritium 5'-AMP into tritium adenosine, the solution was added with 0.05 ml (1 mg/ml) of snake poison as 5'-nucleotidase and reacted at 30° C. for 10 minutes. The whole amount of this reaction solution was then added to a cation exchange resin (AG 500 W×4, 200-400 meshes, manufactured by Bio-Rad Co., column size: 0.5×1.5 cm), and the produced tritium anodesine alone was allowed to combine, washed with 6 ml of distilled water and eluted with 1.5 ml of 3 N-ammonia water. The whole quantity of the elutant was added with 10 ml of a triton-toluene type scintillator and the produced tritium adenosine was measured by a liquid scintillation counter to determine the phosphodiesterase activity.
In this way, the phosphodiesterase activation value (Vs) of the test compounds of the respective concentrations was determined, and the phosphodiesterase obstruction rate (%) was determined from said activation value (Vs) and control value (Vc) (obtained from water not containing any test compound) from the following formula: [formula] Known 1-methyl-3-isobutylxanthine was used as control.

For `O=C(CCCOc1ccc2[nH]c(=O)ccc2c1)N(CCO)C1CCCCC1` [No. 1, 6-{3-[N-(2-hydroxyethyl)-N-cyclohexylaminocarbonyl]propoxy}carbostyril], which LD50 (Acute Toxicity Test) is on record?
Its LD50 is > 1000 mg/kg.

And the “Maximum blood pressure after the administration (difference)” value (“Maximum blood pressure … (difference)” for short) ([1]; 1 hour)?
Its value is -27.0 ± 14.0 mmHg.

What about the “Maximum blood pressure … (difference)” value ([1]; 2 hours) of the same compound?
Its value is -28.6 ± 16.4 mmHg.

What about the “Maximum blood pressure … (difference)” value ([1]; 4 hours) of the same compound?
Its value is -32.4 ± 15.2 mmHg.

And the “Maximum blood pressure … (difference)” value ([1]; 6 hours)?
The value was -35.0 ± 11.5 mmHg.

What about the “Maximum blood pressure … (difference)” value ([1]; 8 hours) of the same compound?
The value was -41.3 ± 17.2 mmHg.

What about the IC50 [2] of the same compound?
The IC50 was 150 nM.
